In PubChem BioAssay AID256 (DTP/NCI, 2004) one finds T/C data, which are given here for 21 compounds.

Where “and” joins values, the source holds several entries; their conditions need not be identical. Identical values can stand only once. Inconclusive results and toxic doses are left out.

In the assay the test system is CD2F1 mice, L1210 leukemia ip, survival T/C. Briefly: NCI In Vivo Anticancer Drug Screen. Data for tumor model L1210 Leukemia (intraperitoneal) in CD2F1 (CDF1) mice. The settings on record: higher = longer survival. A digest of the protocol:
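Activity against a transplanted murine tumor was judged by comparing the compound group with a vehicle group. The outcome in the treated animals was divided by that in the controls.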

The mark [1] stands for this setting: endpoint: mean survival time, dose: 100.0 mg/kg/injection, schedule: Q04DX003 (ip), vehicle: saline with Tween-80.
[2] abbreviates: endpoint: mean survival time, dose: 200.0 mg/kg/injection, schedule: Q04DX003 (ip), vehicle: saline with Tween-80.
The mark [3] stands for this setting: endpoint: mean survival time, dose: 400.0 mg/kg/injection, schedule: Q04DX003 (ip), vehicle: saline with Tween-80.
Where [4] appears, read: endpoint: mean survival time, dose: 50.0 mg/kg/injection, schedule: Q01DX009 (ip), vehicle: Klucel (hydroxypropylcellulose) (HPC).
Where [5] appears, read: endpoint: mean survival time, dose: 100.0 mg/kg/injection, schedule: Q01DX009 (ip), vehicle: Klucel (hydroxypropylcellulose) (HPC).
The mark [6] stands for this setting: endpoint: mean survival time, dose: 200.0 mg/kg/injection, schedule: Q01DX009 (ip), vehicle: Klucel (hydroxypropylcellulose) (HPC).
Setting [7] is: endpoint: mean survival time, dose: 100.0 mg/kg/injection, schedule: Q04DX002 (ip), vehicle: saline with Tween-80.
Setting [8] is: endpoint: mean survival time, dose: 200.0 mg/kg/injection, schedule: Q04DX002 (ip), vehicle: saline with Tween-80.
Setting [9] is: endpoint: mean survival time, dose: 400.0 mg/kg/injection, schedule: Q04DX002 (ip), vehicle: saline with Tween-80.
Where [10] appears, read: endpoint: mean survival time, dose: 100.0 mg/kg/injection, schedule: Q04DX003 (ip), vehicle: Klucel (hydroxypropylcellulose) (HPC).
Setting [11] is: endpoint: mean survival time, dose: 200.0 mg/kg/injection, schedule: Q04DX003 (ip), vehicle: Klucel (hydroxypropylcellulose) (HPC).
[12] abbreviates: endpoint: mean survival time, dose: 50.0 mg/kg/injection, schedule: Q01DX009 (ip), vehicle: saline with Tween-80.
Where [13] appears, read: endpoint: mean survival time, dose: 100.0 mg/kg/injection, schedule: Q01DX009 (ip), vehicle: saline with Tween-80.
[14] abbreviates: endpoint: mean survival time, dose: 200.0 mg/kg/injection, schedule: Q01DX009 (ip), vehicle: saline with Tween-80.
[15] abbreviates: endpoint: mean survival time, dose: 400.0 mg/kg/injection, schedule: Q01DX009 (ip), vehicle: saline with Tween-80.
[16] abbreviates: endpoint: mean survival time, dose: 25.0 mg/kg/injection, schedule: Q01DX009 (ip), vehicle: saline with Tween-80.

In the case of `C/C=C(\C)C(=O)OC1C(C)=C2C(C1OC(=O)CCCCC)C(C)(OC(C)=O)CC(OC(=O)CCC)C1(O)C2OC(=O)C1(C)O` (stereo unspecified), the T/C was 113 % of control (endpoint: median survival time, dose: 0.5 mg/kg/injection, schedule: Q01DX005 (ip), vehicle: Klucel (hydroxypropylcellulose) (HPC)); 118 % of control (endpoint: median survival time, dose: 1.0 mg/kg/injection, schedule: Q01DX005 (ip), vehicle: Klucel (hydroxypropylcellulose) (HPC)); 122 % of control (endpoint: median survival time, dose: 2.0 mg/kg/injection, schedule: Q01DX005 (ip), vehicle: Klucel (hydroxypropylcellulose) (HPC)).
In the case of `COc1cc2c(c(OC)c1OC)-c1ccc(SC)c(=O)cc1[C@@H](NC1OCC(O)C(O)C1O)CC2` (stereo partly specified), the T/C (endpoint: mean survival time, dose: 6.0 mg/kg/injection, schedule: Q01DX009 (ip), vehicle: other) was 102 % of control; the T/C (endpoint: mean survival time, dose: 12.0 mg/kg/injection, schedule: Q01DX009 (ip), vehicle: other) was 120 % of control; the T/C (endpoint: mean survival time, dose: 12.5 mg/kg/injection, schedule: Q01DX009 (ip), vehicle: other) was 106 % of control; the T/C (endpoint: mean survival time, dose: 25.0 mg/kg/injection, schedule: Q01DX009 (ip), vehicle: other) is 119 % of control; the T/C (endpoint: mean survival time, dose: 100.0 mg/kg/injection, schedule: Q01DX009 (ip), vehicle: other) was 88 % of control.
For the compound `Cc1ccc(S(=O)(=O)NC(CSCc2ccccc2)C(=O)O)cc1` (stereo unspecified), the T/C is 94 % of control under setting [1], 93 % of control under setting [2] and 95 % of control under setting [3].
`ClC(Cl)(Cl)C(c1ccccc1)c1ccccc1`: the T/C reads like this: under setting [4], 96 % of control; under setting [5], 93 % of control; under setting [1], 101 % of control; under setting [6], 93 % of control; under setting [2], 95 % of control; under setting [3], 90 % of control.
Take `CC1(CC(=O)O)NC(=O)NC1=O` (stereo unspecified): the T/C is 102 % of control (endpoint: mean survival time, dose: 100.0 mg/kg/injection, schedule: Q01DX001 (ip), vehicle: saline); 96 % of control under setting [7]; 97 % of control (endpoint: mean survival time, dose: 200.0 mg/kg/injection, schedule: Q01DX001 (ip), vehicle: saline); 101 % of control under setting [8]; 100 % of control (endpoint: mean survival time, dose: 400.0 mg/kg/injection, schedule: Q01DX001 (ip), vehicle: saline); 96 % of control under setting [9].
`CC1CN=C(c2ccc(NC(=O)c3ccc(C(=O)Nc4ccc(C5=NCC(C)N5)cc4)cc3)cc2)N1` (stereo unspecified): the T/C is, setting by setting: (endpoint: mean survival time, dose: 12.5 mg/kg/injection, schedule: Q01DX009 (ip), vehicle: Klucel (hydroxypropylcellulose) (HPC)) 212 % of control; (endpoint: mean survival time, dose: 25.0 mg/kg/injection, schedule: Q01DX009 (ip), vehicle: Klucel (hydroxypropylcellulose) (HPC)) 269 % of control; under setting [4], 290 % of control; under setting [5], 305 % of control; under setting [6], 333 % of control; (endpoint: mean survival time, dose: 400.0 mg/kg/injection, schedule: Q01DX009 (ip), vehicle: Klucel (hydroxypropylcellulose) (HPC)) 288 % of control.
Regarding `CCOC(=O)C(C)(C)CO`, the T/C was 93 % of control (endpoint: mean survival time, dose: 100.0 mg/kg/injection, schedule: Q01DX009 (ip), vehicle: saline sonified); 101 % of control (endpoint: mean survival time, dose: 200.0 mg/kg/injection, schedule: Q01DX009 (ip), vehicle: saline sonified); 103 % of control (endpoint: mean survival time, dose: 400.0 mg/kg/injection, schedule: Q01DX009 (ip), vehicle: saline sonified); 90 % of control (endpoint: mean survival time, dose: 800.0 mg/kg/injection, schedule: Q01DX009 (ip), vehicle: saline sonified).
In the case of `O=C(NCC#CCN1CCCC1)Nc1cccc(Cl)c1`, the T/C (endpoint: mean survival time, dose: 12.5 mg/kg/injection, schedule: Q04DX002 (ip), vehicle: saline with Tween-80) is 102 % of control; the T/C (endpoint: mean survival time, dose: 25.0 mg/kg/injection, schedule: Q01DX001 (ip), vehicle: saline with Tween-80) is 92 % of control; the T/C (endpoint: mean survival time, dose: 25.0 mg/kg/injection, schedule: Q04DX002 (ip), vehicle: saline with Tween-80) was 95 % of control; the T/C (endpoint: mean survival time, dose: 50.0 mg/kg/injection, schedule: Q01DX001 (ip), vehicle: saline with Tween-80) was 106 % of control; the T/C (endpoint: mean survival time, dose: 50.0 mg/kg/injection, schedule: Q04DX002 (ip), vehicle: saline with Tween-80) is 87 % of control; the T/C (endpoint: mean survival time, dose: 100.0 mg/kg/injection, schedule: Q01DX001 (ip), vehicle: saline with Tween-80) is 92 % of control and 93 % of control. In addition, under setting [7], the T/C was 98 % of control.
Consider `CC(=O)N(C)N=Nc1ccc(F)cc1`, for which the T/C was 105 % of control (endpoint: mean survival time, dose: 25.0 mg/kg/injection, schedule: Q04DX003 (ip), vehicle: Klucel (hydroxypropylcellulose) (HPC)); 102 % of control (endpoint: mean survival time, dose: 50.0 mg/kg/injection, schedule: Q04DX003 (ip), vehicle: Klucel (hydroxypropylcellulose) (HPC)); 105 % of control under setting [10]; 105 % of control under setting [11].
As for `O=C1NC(=O)C(Cc2ccccc2)(Cc2ccccc2)C(=O)N1Cc1ccccc1`, the T/C runs as follows: under setting [12], 100 % of control; under setting [13], 91 % of control; under setting [14], 100 % of control.
Turning to `COc1ccc(-c2c3nc(c(-c4ccc(OC)cc4)c4ccc([nH]4)c(-c4ccc(OC)cc4)c4nc(c(-c5ccc(OC)cc5)c5ccc2[nH]5)C=C4)C=C3)cc1`, the T/C runs as follows: under setting [10], 93 % of control; under setting [11], 101 % of control; (endpoint: mean survival time, dose: 400.0 mg/kg/injection, schedule: Q04DX003 (ip), vehicle: Klucel (hydroxypropylcellulose) (HPC)) 89 % of control.
Regarding `O=[N+]([O-])c1ccc2nc3c(nc2c1)-c1cccc2cccc-3c12`, the T/C under setting [13] was 98 % of control, the T/C under setting [14] was 98 % of control and the T/C under setting [15] is 98 % of control.
With `Brc1ccccc1C=C1c2ccccc2-c2ccccc21`, the T/C under setting [13] was 100 % of control, the T/C under setting [14] is 102 % of control and the T/C under setting [15] was 106 % of control.
`CCN(CC)C(=S)Nc1ccc(Cl)cc1`: the T/C reads like this: under setting [7], 102 % of control; under setting [8], 102 % of control; under setting [9], 102 % of control.
`CC(CC(=O)Nc1ccccc1)C(=O)O` (stereo unspecified): the T/C by setting is: under setting [1], 103 % of control; under setting [2], 101 % of control; under setting [3], 106 % of control.
Turning to `CC(Cc1ccccc1)NC(N)=O` (stereo unspecified), the T/C is, setting by setting: (endpoint: mean survival time, dose: 12.5 mg/kg/injection, schedule: Q01DX009 (ip), vehicle: saline with Tween-80) 100 % of control; under setting [16], 97 % of control; under setting [12], 92 % of control.
Turning to `Oc1c(CN2CCOCC2)cc(CN2CCOCC2)cc1CN1CCOCC1`, the T/C was 100 % of control under setting [13], 95 % of control under setting [14] and 100 % of control under setting [15].
Take `[O-][n+]1ccnc2c1cnn2C1OC(CO)C(O)C1O` (stereo unspecified): the T/C was 104 % of control (endpoint: mean survival time, dose: 12.5 mg/kg/injection, schedule: Q04DX003 (ip), vehicle: water); 104 % of control (endpoint: mean survival time, dose: 25.0 mg/kg/injection, schedule: Q04DX003 (ip), vehicle: water); 101 % of control (endpoint: mean survival time, dose: 50.0 mg/kg/injection, schedule: Q04DX003 (ip), vehicle: water); 101 % of control (endpoint: mean survival time, dose: 100.0 mg/kg/injection, schedule: Q04DX003 (ip), vehicle: water); 101 % of control (endpoint: mean survival time, dose: 200.0 mg/kg/injection, schedule: Q04DX003 (ip), vehicle: water).
As to `O=C1OCC/C1=C1/CCOC1`, the T/C by setting is: under setting [16], 101 % of control; under setting [12], 101 % of control.
For the compound `CCOC(=O)Cc1nnc2ncnc(N)c2n1`, the T/C runs as follows: (endpoint: mean survival time, dose: 100.0 mg/kg/injection, schedule: Q01DX001 (ip), vehicle: other) 101 % of control; (endpoint: mean survival time, dose: 200.0 mg/kg/injection, schedule: Q01DX001 (ip), vehicle: other) 103 % of control; (endpoint: mean survival time, dose: 400.0 mg/kg/injection, schedule: Q01DX001 (ip), vehicle: other) 98 % of control.
For `CC(=O)CC1C(CC(=O)O)C1(C)C` (stereo unspecified), the T/C was 100 % of control (endpoint: mean survival time, dose: 100.0 mg/kg/injection, schedule: Q01DX001 (ip), vehicle: alcohol); 102 % of control (endpoint: mean survival time, dose: 200.0 mg/kg/injection, schedule: Q01DX001 (ip), vehicle: alcohol); 102 % of control (endpoint: mean survival time, dose: 400.0 mg/kg/injection, schedule: Q01DX001 (ip), vehicle: alcohol).
